What was measured:
[1] = tested on: Bladder Urothelial Carcinoma; test: Anti-cancer effect of allopurinol (cell biology screening combined with animal experiments); details: BLCA; PAICS abnormally high expression
Description: (§1) This property of allopurinol is different from those of most chemotherapeutic drugs.

[2] = tested on: Breast invasive carcinoma; test: as above; details: BRCA; PAICS abnormally high expression
Description: as §1

[3] = tested on: Cervical squamous cell carcinoma and endocervical adenocarcinoma; test: as above; details: CESC; PAICS abnormally high expression
Description: as §1

Cholangiocarcinoma = test: as above; details: CHOL; PAICS abnormally high expression
Description: as §1

Colon adenocarcinoma = test: as above; details: COAD; PAICS abnormally high expression
Description: as §1

Esophageal carcinoma = test: as above; details: ESCA; PAICS abnormally high expression
Description: as §1

Glioblastoma multiforme = test: as above; details: GBM; PAICS abnormally high expression
Description: as §1

[4] = tested on: Head and Neck squamous cell carcinoma; test: as above; details: HNSC; PAICS abnormally high expression
Description: as §1

[5] = tested on: Liver hepatocellular carcinoma; test: as above; details: LIHC; PAICS abnormally high expression
Description: as §1

Lung adenocarcinoma = test: as above; details: LUAD; PAICS abnormally high expression
Description: as §1

[6] = tested on: Lung squamous cell carcinoma; test: as above; details: LUSC; PAICS abnormally high expression
Description: as §1

[7] = tested on: Pancreatic adenocarcinoma; test: as above; details: PAAD; PAICS abnormally high expression
Description: as §1

Prostate adenocarcinoma = test: as above; details: PRAD; PAICS abnormally high expression
Description: as §1

Rectum adenocarcinoma = test: as above; details: READ; PAICS abnormally high expression
Description: as §1

Stomach adenocarcinoma = test: as above; details: STAD; PAICS abnormally high expression
Description: as §1

[8] = tested on: Uterine Corpus Endometrial Carcinoma; test: as above; details: UCEC; PAICS abnormally high expression
Description: as §1

[9] = tested on: cancer with abnormally high expression of the PAICS gene; test: Anti-cancer and therapeutic effect, cancers with abnormally high PAICS expression
Description: as §1

[10] = tested on: cancers with non-abnormally high expression of the PAICS gene; test: Therapeutic effect, cancers with non-abnormally high PAICS expression; details: cancers with non-abnormally high PAICS expression such as renal cancer, skin cutaneous melanoma, pheochromocytoma and paraganglioma
Description: as §1

Bel-7402 = details: data of CN102746306A; cited from earlier work
SMMC-7221 = details: data of CN102746306A; cited from earlier work

Oc1ncnc2[nH]ncc12 [allopurinol, Allopurinol]
Anti-cancer effect of allopurinol [1]: Significant
Anti-cancer effect of allopurinol [2]: Significant
Anti-cancer effect of allopurinol [3]: Significant
Anti-cancer effect of allopurinol (Cholangiocarcinoma): Significant
Anti-cancer effect of allopurinol (Colon adenocarcinoma): Significant
Anti-cancer effect of allopurinol (Esophageal carcinoma): Significant
Anti-cancer effect of allopurinol (Glioblastoma multiforme): Significant
Anti-cancer effect of allopurinol [4]: Significant
Anti-cancer effect of allopurinol [5]: Significant
Anti-cancer effect of allopurinol (Lung adenocarcinoma): Significant
Anti-cancer effect of allopurinol [6]: Significant
Anti-cancer effect of allopurinol [7]: Significant
Anti-cancer effect of allopurinol (Prostate adenocarcinoma): Significant
Anti-cancer effect of allopurinol (Rectum adenocarcinoma): Significant
Anti-cancer effect of allopurinol (Stomach adenocarcinoma): Significant
Anti-cancer effect of allopurinol [8]: Significant
anti-cancer and therapeutic effects [9]: significant anti-cancer and therapeutic effects
therapeutic effect [10]: no significant therapeutic effect
anti-tumor activity (Bel-7402): no anti-tumor activity
anti-tumor activity (SMMC-7221): no anti-tumor activity
